Entries after “also recorded” stand apart in the source; their conditions may differ.
Target: T1, DPAGT1 (Homo sapiens, UniProt Q9H3H5)
T1 construct: full-length DPAGT1 bearing an additional tobacco etch virus (TEV) protease-cleavable N-terminal His6 tag; His6 with TEV protease cleavage site ([…]/S leader) (N, cleaved yes); made in house; host or cells: Spodoptera frugiperda Sf9 insect cells (baculovirus, pFB-LIC-Bse vector)
T1 sequence (Q9H3H5 with tags, fused parts or gaps): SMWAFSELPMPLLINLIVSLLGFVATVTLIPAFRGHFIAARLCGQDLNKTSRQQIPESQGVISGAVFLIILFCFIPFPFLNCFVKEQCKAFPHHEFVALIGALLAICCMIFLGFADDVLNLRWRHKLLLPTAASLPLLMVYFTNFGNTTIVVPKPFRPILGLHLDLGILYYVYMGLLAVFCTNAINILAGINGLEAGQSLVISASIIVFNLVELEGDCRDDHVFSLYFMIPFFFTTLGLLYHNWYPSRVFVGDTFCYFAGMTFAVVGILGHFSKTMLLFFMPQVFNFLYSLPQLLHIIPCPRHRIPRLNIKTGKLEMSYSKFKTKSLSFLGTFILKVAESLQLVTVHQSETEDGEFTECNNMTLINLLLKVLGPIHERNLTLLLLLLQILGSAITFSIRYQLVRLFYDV
Assay: DPAGT1 radiometric in vitro activity assay (end point, phosphorimaging of radio-TLC)
Type: biochemical
Details: for % Activity of DPAGT1 in the presence of a tunicamycin analogue compared to a negative control (GFB): Table S1, analogue 1 µM, DPAGT1 1 µM, dolichyl monophosphate 50 µM, UDP-GlcNAc(1-14C) 50 µM, 37 °C, 21 min, three biological replicates; for DPAGT1 inhibition (in words) / activity at 1 µM: inhibitor 1 µM; for DPAGT1 inhibition (in words): enzyme:inhibitor 1:1, substrates 50 µM; for activity at 1 µM: enzyme:inhibitor 1:1, read-out: retained DPAGT1 activity (% of WT activity)
Description: Figure 2 Design, synthesis and in vitro inhibitory activity of lipid-altered tunicamycins. (A) Structure of DPAGT1 in complex with tunicamycin[21] showing key interactions primarily along TMH5 that in concert with a Trp122 “lid” create the lipid-engagement site (blue). This engagement contrasts with a small, gated pocket below bounded primarily by Leu293 in which only smaller moieties (here an acetamide) are accommodated (red). (B) Guided by this structure, as an apparent snapshot of a Michaelis complex-like mode of binding, modulation at two acyl sites in the core scaffold was explored. […] Semisynthesis allowed generation of graduated lipid tunicamycin analogues through regiochemical differentiation in carbamoylation to generate two key divergent intermediates: Tun-0E,0G and Tun-0E,2G. Subsequent differential acylations allow for generation of both symmetric and asymmetric Tun-XE,YG analogues. Reagents and conditions: (a) Ac2O, pyridine; (b) Boc2O, DMAP, THF; (c) NaOMe, MeOH; (d) 4 M HCl in dioxane, MeOH; (e) HATU, DIPEA, octanoic acid, DMF; (f) HATU, DIPEA, carboxylic acid; (g) HATU, DIPEA, 2 × carboxylic acid. (C) Residual % in vitro activity of DPAGT1 following incubation with analogues [DPAGT1 ([…]), MgCl2 (5 mM), Tun analogue ([…]), dolichol phosphate ([…]), and UDP-GlcNAc(1-^14C) ([…]) in 1% OGNG/CHS/cardiolipin] was assessed through end point assay at 37 °C via phosphorimaging. These were determined on the basis of three biological replicates, each using three technical replicates. Error bars shown are standard deviations.
The intended targeting and graduated modulation of DPAGT1’s PNPT activity was assessed in vitro using a highly pure recapitulated source. Briefly, full-length DPAGT1 bearing an additional tobacco etch virus (TEV) protease-cleavable N-terminal His6 tag was expressed using a baculovirus (DH10Bac)/insect cell (Spodoptera frugiperda Sf9) system using a pFB-LIC-Bse expression vector. DPAGT1 is an integral transmembrane enzyme, and thus, after harvesting and lysis, protein was extracted from the expression host membrane fraction using octyl glucose neopentyl glycol (OGNG) (1% w/v) and cholesterylhemisuccinate (CHS) (0.1% w/v) before isolation and purification by immobilized metal affinity chromatography (IMAC) using a Co^2+-charged (“TALON”) resin and elution with an imidazole gradient. To ensure that there were no confounding effects of the His6 tag, this was then cleaved with TEV protease followed by reverse IMAC and size exclusion chromatography in sequence.
Radiometric bisubstrate analyses allowed excellent sensitivity under the conditions necessary for proper recapitulation of the activity. Purified DPAGT1 (1 μM) was incubated with both substrates, dolichol monophosphate and radiolabeled UDP-N-acetyl-D-[1-^14C]glucosamine, at 50 μM, and the activity was determined directly by end point phosphor detection of product dolichol-PP-N-acetyl-D-[1-^14C]glucosamine formation.
MgCl2, 10 mM imidazole (pH 8.0), 200 mM NaCl , 2 mM TCEP (added fresh), 5% Glycerol, 0.18% OGNG, 0.01 8% CHS, 0.0036% cardiolipin) and the protein was eluted with WB supplemented with 250 mM imidazole (pH 8.0). The eluted protein was desalted using PD-10 columns (GE Healthcare) pre-equilibrated with gel filtration buffer (GFB: 20 mM HEPES (pH […]
cardiolipin). Desalted protein was subsequently treated with 10:1 TEV protease (w:w, protein:enzyme) overnight at 4 ° C. The TEV protease treated protein was separated from the 6-His-tagged enzymes and uncleaved DPAGT1 by incubation for 1 h with Talon resin (prepared as described above) at 4 °C for 1 h. The resin was collected in a column, the flowthrough collected and the protein sample was centrifuged at 21,500 rpm in a Beckman TA25.5 rotor for 10 min at 4 ° C. The supernatant was then concentrated to 0.5 mL using a 30 kDa cutoff PES concentrator (Corning), with mixing every 5 mins during concentration. The […]

## CCCCCCCCC(=O)N[C@H]1[C@@H](O[C@@H]2O[C@H](C[C@@H](O)[C@H]3O[C@@H](n4ccc(=O)[nH]c4=O)[C@H](O)[C@@H]3O)[C@H](O)[C@H](O)[C@H]2NC(=O)CCC)O[C@H](CO)[C@@H](O)[C@@H]1O [Tun-4E,9G]
  % Activity of DPAGT1 in the presence of a tunicamycin analogue compared to a negative control (GFB): 93.6%
  DPAGT1 inhibition (in words): little to no significant inhibition; also recorded: minimal DPAGT1 inhibition

## CCCCCCCC(=O)N[C@H]1[C@H](O[C@H]2O[C@H](CO)[C@@H](O)[C@H](O)[C@H]2NC(C)=O)O[C@H](C[C@@H](O)[C@H]2O[C@@H](n3ccc(=O)[nH]c3=O)[C@H](O)[C@@H]2O)[C@H](O)[C@@H]1O [Tun-8E,2G]
  % Activity of DPAGT1 in the presence of a tunicamycin analogue compared to a negative control (GFB): 35.4%
  DPAGT1 inhibition (in words): increasing inhibitory activity in a graduated manner
  activity at 1 µM: 35%

## CCCCCCCCC(=O)N[C@H]1[C@H](O[C@H]2O[C@H](CO)[C@@H](O)[C@H](O)[C@H]2NC(=O)CCCCCCCC)O[C@H](C[C@@H](O)[C@H]2O[C@@H](n3ccc(=O)[nH]c3=O)[C@H](O)[C@@H]2O)[C@H](O)[C@@H]1O [Tun-9E,9G]
  % Activity of DPAGT1 in the presence of a tunicamycin analogue compared to a negative control (GFB): 79.6%
  DPAGT1 inhibition (in words): little to no significant inhibition; also recorded: minimal DPAGT1 inhibition

## CCCCCCCCC(=O)N[C@H]1[C@H](O[C@H]2O[C@H](CO)[C@@H](O)[C@H](O)[C@H]2NC(=O)CC(C)C)O[C@H](C[C@@H](O)[C@H]2O[C@@H](n3ccc(=O)[nH]c3=O)[C@H](O)[C@@H]2O)[C@H](O)[C@@H]1O [Tun-9E,i5G]
  % Activity of DPAGT1 in the presence of a tunicamycin analogue compared to a negative control (GFB): 54.8%
  DPAGT1 inhibition (in words): increasing inhibitory activity in a graduated manner
  activity at 1 µM: 55%

## tunicamycin [reference compound]
  % Activity of DPAGT1 in the presence of a tunicamycin analogue compared to a negative control (GFB): 0.18%
  DPAGT1 inhibition (in words): complete inhibition

Reference: publication PMC11758266, “Lipid-Modulated, Graduated Inhibition of N-Glycosylation Pathway Priming Suggests Wide Tolerance of ER Proteostasis to Stress” (ACS Central Science, 2024)
